In patent US20100167260A1, “Use of N-Piperidine Derivative Compositions for Protecting Biological Systems” (MEDESTEA RESEARCH & PRODUCTION SPA, priority 2006, published 2010):

Experiments:
rabbit heart [1] = assay: Rabbit heart cold preservation (24 h, 4° C.) and Langendorff reperfusion: developed pressure
Procedure: Male New Zealand rabbits (1.4-1.8 kg weight) were kept on a standard laboratory diet supplemented with “Nossan pellet” (both the animals and pellets are available from Nossan Company, Milan, Italy) and were housed for three weeks (relative humidity 50% ±10%, temperature 22° C.±1° C. and in a light/darkness cycle of 12 hours/12 hours, with first light at 7.30 a.m.) prior to the experiments; food and water were available ad libitum.
The hearts were quickly excised from anesthetized animals (55 mg/kg body weight sodium pentobarbital; ten rabbits for each experiment group were used) flushed with the respective experimental solutions and placed in either cold (4° C.) Celsior and Celsior plus 5 mM MP1001 or Celsior plus GSH 5 mM for 24 hours. Because Celsior standard solution contains 3 mM reduced glutathione (GSH), comparative experiments in term of “total antioxidant power” using equimolar antioxidant amount (e.g. adding 5 mM MP1001 or 5 mM GSH to Celsior) were performed. […]
After 24 hours of cold preservation and reperfusion for 1 hour, the developed pressure (as a measure of protection) of the hearts preserved in Celsior (standard/control) was a mean of 34±9.55 mmHg. […] We determined that this level of recovery was not sufficient and proceeded to add the cardioprotective antioxidant MP1001 (5 mM) or GSH (5 mM, to have a final, equimolar 8 mM “antioxidant concentration”).

rabbit heart [2] = assay: Lipid peroxidation (MDA release) in rabbit hearts after 1 h reperfusion
Procedure: (§1) The hearts were quickly excised from anesthetized animals (55 mg/kg body weight sodium pentobarbital; ten rabbits for each experiment group were used) flushed with the respective experimental solutions and placed in either cold (4° C.) Celsior and Celsior plus 5 mM MP1001 or Celsior plus GSH 5 mM for 24 hours. Because Celsior standard solution contains 3 mM reduced glutathione (GSH), comparative experiments in term of “total antioxidant power” using equimolar antioxidant amount (e.g. adding 5 mM MP1001 or 5 mM GSH to Celsior) were performed.
(§2) At the end of cold preservation, the organs were then reperfused in a Langerdoff working heart model with oxygenated Krebs-Henseleit buffer (120 mM NaCl, 25 mM NaHCO3, 4.9 mM KCl, 1.2 mM KH2PO4, 2.5 mM CaCl2, 1.25 MgSO4 and 10 mM glucose). The buffers were bubbled regularly with a mixture of O2 (95%) and CO2 (5%); the CO2 helped maintain the buffer at a physiological pH (7.4). In the mean time, the apparatus had extensive water-jacketing connected to a water heater that maintained buffers and hearts at 37° C. The buffers was filtered through a Gelman GA-4, 0.8 μm metrical, membrane before the use. […]
(§3) Lipid peroxidation was determined by quantification of the release of malondialdeyde (MDA) accumulated in cells which was used as biomarker, essentially according to Buege Y. A. & Aust S. G., Method Enzymol. […]

rabbit heart [3] = assay: Carbonyl proteins in rabbit hearts after 1 h reperfusion
Procedure: as §1, §2, §3

rabbit heart [4] = assay: LDH levels in the perfusate of rabbit hearts after 1 h reperfusion
Procedure: as §1, §2, §3

rabbit heart [5] = assay: Histopathological analysis of rabbit hearts after 1 h reperfusion; conditions: hearts stored in Celsior plus 5 mM MP1001 as compared to GSH
Procedure: as §1
as §2, with “use. A saline-filled latex balloon connected through a pressure transducer to a polygraph recorder was inserted into the left ventricle through a left atriotomy and secured by a suture to the mitrial annulus.” for “use.”

[6] = rabbit hearts, 24 h cold preservation in Celsior (additive 5 mM where given)

SMILES | protection (developed pressure) compared to standard Celsior solution (rabbit heart [1]; 5 mM added to Celsior (8 mM GSH final), 24 hours cold preservation, 1 h reperfusion) | effect on lipid peroxidation vs standard Celsior (rabbit heart [2]; additional 5 mM in Celsior) | effect on carbonyl proteins vs standard Celsior (rabbit heart [3]; 5 mM supplement in Celsior) | effect on LDH vs standard Celsior (rabbit heart [4]; 5 mM supplement in Celsior) | developed pressure (rabbit heart [1]; rabbit hearts, 24 hours cold (4° C.) preservation in Celsior (additive 5 mM where given), reperfusion for 1 hour) [mmHg] | lipid peroxidation (malondialdeyde, MDA) (rabbit heart [2]; [6]) | carbonyl proteins (rabbit heart [3]; [6]) | LDH levels in the perfusate (rabbit heart [4]; [6]) | histopathological analysis (myocyte injury, edema, endotelial damage) (rabbit heart [5])
N[C@@H](CCC(=O)N[C@@H](CS)C(=O)NCC(=O)O)C(=O)O [GSH, reduced glutathione, reference compound] | did not provide any additional protection | did not significantly modify this parameter | not modified | not modified | – | – | – | – | –
CC1(C)CC(OC(=O)CCCCCCCCC(=O)OC2CC(C)(C)N(O)C(C)(C)C2)CC(C)(C)N1O [MP1001, bis(1-hydroxy-2,2,6,6-tetramethyl-4-piperidinyl)decandioate] | – | – | – | – | 88±9.02 | 0.31±0.10 | 48±11 | 0.3±0.1 | Hearts sustained less injury by all criteria examined
